Measurements: patent publication US10259776B2, “Branched 3-phenylpropionic acid derivatives and their use” (BAYER INTELLECTUAL PROPERTY GMBH, priority 2011, dated 2019)

Columns and labels:
[1] = molecular target: sGC in the CHO reporter cell (Rattus norvegicus (Rat), UniProt P20595); test: Action at a recombinant guanylate cyclase reporter cell line; format: cell-based; conditions: CHO reporter cell in vitro
Procedure: The cellular action of the compounds according to the invention is determined at a recombinant guanylate cyclase reporter cell line, as described in F. Wunder et al., Anal. Biochem. 339, 104-112 (2005).

[2] = molecular target: Haem-free sGC (recombinant soluble guanylate cyclase) (Rattus norvegicus (Rat), UniProt P20595); test: Stimulation of recombinant soluble guanylate cyclase (sGC) in vitro, haem-free enzyme; format: biochemical; conditions: haem-free (0.5% Tween 20), n = 5
Procedure: Investigations on the stimulation of recombinant soluble guanylate cyclase (sGC) by the compounds according to the invention with and without sodium nitroprusside, and with and without the haem-dependent sGC inhibitor 1H-1,2,4-oxadiazolo[4,3a]quinoxalin-1-one (ODQ), are carried out by the method described in detail in the following reference: M. Hoenicka, E. M. Becker, H. Apeler, T. Sirichoke, H. Schroeder, R. Gerzer and J.-P. Stasch, “Purified soluble guanylyl cyclase expressed in a baculovirus/Sf9 system: Stimulation by YC-1, nitric oxide, and carbon oxide”, J. Mol. Med. 77 (1999), 14-23. The haem-free guanylate cyclase is obtained by adding Tween 20 to the sample buffer (0.5% in the final concentration).
(§1) The activation of sGC by a test substance is reported as x-fold stimulation of the basal activity.

[3] = molecular target: Haem-containing sGC (recombinant soluble guanylate cyclase) (Rattus norvegicus (Rat), UniProt P20595); test: Stimulation of recombinant soluble guanylate cyclase (sGC) in vitro, haem-containing enzyme; format: biochemical; conditions: for Stimulation (x-fold) of recombinant sGC, haem-containing sGC, basal: n = 5
Text: Hoenicka, E. M. Becker, H. Apeler, T. Sirichoke, H. Schroeder, R. Gerzer and J.-P. Stasch, “Purified soluble guanylyl cyclase expressed in a baculovirus/Sf9 system: Stimulation by YC-1, nitric oxide, and carbon oxide”, J. Mol. Med. 77 (1999), 14-23. The haem-free guanylate cyclase is obtained by adding Tween 20 to the sample buffer (0.5% in the final concentration).
as §1

Chain of Haem-containing sGC (recombinant soluble guanylate cyclase) (P20595 whole entry): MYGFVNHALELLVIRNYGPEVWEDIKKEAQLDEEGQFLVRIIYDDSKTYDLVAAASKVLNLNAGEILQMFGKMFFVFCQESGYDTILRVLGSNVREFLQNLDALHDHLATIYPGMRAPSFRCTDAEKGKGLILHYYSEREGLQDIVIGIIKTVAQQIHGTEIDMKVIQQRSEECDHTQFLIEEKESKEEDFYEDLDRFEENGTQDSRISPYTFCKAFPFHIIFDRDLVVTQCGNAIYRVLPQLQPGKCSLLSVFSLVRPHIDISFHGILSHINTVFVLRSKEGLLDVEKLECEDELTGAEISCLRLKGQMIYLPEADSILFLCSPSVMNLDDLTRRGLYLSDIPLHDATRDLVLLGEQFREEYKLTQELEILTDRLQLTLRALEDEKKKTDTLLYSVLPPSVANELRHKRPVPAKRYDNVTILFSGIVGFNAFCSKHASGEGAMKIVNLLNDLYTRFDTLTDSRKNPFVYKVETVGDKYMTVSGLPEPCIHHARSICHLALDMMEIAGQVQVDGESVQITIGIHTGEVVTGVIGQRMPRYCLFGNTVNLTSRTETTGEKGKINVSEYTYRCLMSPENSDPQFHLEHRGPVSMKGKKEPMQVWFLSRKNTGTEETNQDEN
Chain of Haem-containing sGC (recombinant soluble guanylate cyclase) (P19686 whole entry partner): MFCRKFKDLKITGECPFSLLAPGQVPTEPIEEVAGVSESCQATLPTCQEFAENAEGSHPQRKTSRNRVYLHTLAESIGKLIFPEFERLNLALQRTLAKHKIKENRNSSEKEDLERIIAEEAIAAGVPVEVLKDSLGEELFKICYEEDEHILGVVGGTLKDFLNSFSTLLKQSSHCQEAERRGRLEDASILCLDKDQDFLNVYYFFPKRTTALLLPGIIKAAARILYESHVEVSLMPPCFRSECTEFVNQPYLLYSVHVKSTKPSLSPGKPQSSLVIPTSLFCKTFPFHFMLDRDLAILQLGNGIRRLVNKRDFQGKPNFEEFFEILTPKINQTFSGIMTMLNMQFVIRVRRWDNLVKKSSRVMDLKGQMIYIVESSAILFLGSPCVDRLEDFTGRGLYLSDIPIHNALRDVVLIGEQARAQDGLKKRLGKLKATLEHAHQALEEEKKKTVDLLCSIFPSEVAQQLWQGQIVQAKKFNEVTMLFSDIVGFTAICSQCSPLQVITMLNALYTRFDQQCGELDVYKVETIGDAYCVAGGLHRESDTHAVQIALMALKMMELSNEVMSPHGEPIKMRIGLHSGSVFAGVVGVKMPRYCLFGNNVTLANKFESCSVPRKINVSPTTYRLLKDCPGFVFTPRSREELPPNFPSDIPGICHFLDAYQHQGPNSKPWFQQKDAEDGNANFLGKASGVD
Chain of sGC in the CHO reporter cell (P20595 whole entry): as the sequence (P20595 whole entry) above
Chain of sGC in the CHO reporter cell (P19686 whole entry partner): as the sequence (P19686 whole entry partner) above
Chain of Haem-free sGC (recombinant soluble guanylate cyclase) (P20595 whole entry): as the sequence (P20595 whole entry) above
Chain of Haem-free sGC (recombinant soluble guanylate cyclase) (P19686 whole entry partner): as the sequence (P19686 whole entry partner) above

Row | MEC (minimum effective concentration), sGC-activating activity in the CHO reporter cell [1] [nM] | Structure (SMILES) | other results
1 | 0.3 | CC(C)C(C)(CC(=O)O)c1ccc(Cl)c(NC(=O)[C@H](c2ccc(Cl)cc2)[C@@H](C)C(F)(F)F)c1 (single isomer, unassigned) [Example 3] | –
2 | 3 | CC(C)C(C)(CC(=O)O)c1ccc(Cl)c(NC(=O)[C@H](c2ccc(Cl)cc2)[C@@H](C)C(F)(F)F)c1 (single isomer, unassigned) [Example 4] | –
3 | 0.3 | C[C@H]([C@H](C(=O)Nc1cc(C(C)(CC(=O)O)C2CCC2)ccc1Cl)c1ccc(Cl)cc1)C(F)(F)F (single isomer, unassigned) [Example 5] | –
4 | 1 | C[C@H]([C@H](C(=O)Nc1cc(C(C)(CC(=O)O)C2CCC2)ccc1Cl)c1ccc(Cl)cc1)C(F)(F)F (single isomer, unassigned) [Example 6] | –
5 | 10 | C[C@H]([C@H](C(=O)Nc1cc(C(CC(=O)O)C2(C)CC2)ccc1Cl)c1ccc(Cl)cc1)C(F)(F)F (single isomer, unassigned) [Example 26] | –
6 | 0.3 | C[C@H]([C@H](C(=O)Nc1cc(C(CC(=O)O)CC2CC2)ccc1Cl)c1ccc(Cl)cc1)C(F)(F)F (single isomer, unassigned) [Example 35] | –
7 | 3 | C[C@H]([C@H](C(=O)Nc1cc(C(CC(=O)O)CC2CC2)ccc1Cl)c1ccc(Cl)cc1)C(F)(F)F (single isomer, unassigned) [Example 36] | –
8 | 3 | CC(C)C(CC(=O)O)c1ccc(Cl)c(NC(=O)[C@H](c2ccc(Cl)cc2)[C@@H](C)C(F)(F)F)c1 (single isomer, unassigned; (+)) [Example 1] | –
9 | 6.5 | CC(C)C(CC(=O)O)c1ccc(Cl)c(NC(=O)[C@H](c2ccc(Cl)cc2)[C@@H](C)C(F)(F)F)c1 (single isomer, unassigned; (+)) [Example 2] | –
10 | 1.8 | C[C@H]([C@H](C(=O)Nc1cc(C(CC(=O)O)C2CC2)ccc1Cl)c1ccc(Cl)cc1)C(F)(F)F (single isomer, unassigned; (+)) [Example 22] | Stimulation (x-fold) of recombinant sGC, haem-free sGC, basal ([2]; 0.01 μM Example 22): 1.2 ± 0.1 x-fold; Stimulation (x-fold) of recombinant sGC, haem-free sGC, basal ([2]; 0.1 μM Example 22): 1.6 ± 0.5 x-fold; Stimulation (x-fold) of recombinant sGC, haem-free sGC, basal ([2]; 1.0 μM Example 22): 4.9 ± 1.5 x-fold; Stimulation (x-fold) of recombinant sGC, haem-free sGC, basal ([2]; 10 μM Example 22): 14.2 ± 2.0 x-fold; Stimulation (x-fold) of recombinant sGC, haem-containing sGC, +0.01 μM DEA/NO ([3]; 0.01 μM Example 22): 4.4 ± 1.3 x-fold; Stimulation (x-fold) of recombinant sGC, haem-containing sGC, +10 μM ODQ ([3]; 0.01 μM Example 22): 5.7 ± 1.6 x-fold; Stimulation (x-fold) of recombinant sGC, haem-containing sGC, basal ([3]; 0.01 μM Example 22): 1.6 ± 0.3 x-fold; Stimulation (x-fold) of recombinant sGC, haem-containing sGC, +0.01 μM DEA/NO ([3]; 0.1 μM Example 22): 3.4 ± 0.9 x-fold; Stimulation (x-fold) of recombinant sGC, haem-containing sGC, +10 μM ODQ ([3]; 0.1 μM Example 22): 6.1 ± 1.7 x-fold; Stimulation (x-fold) of recombinant sGC, haem-containing sGC, basal ([3]; 0.1 μM Example 22): 1.6 ± 0.5 x-fold; Stimulation (x-fold) of recombinant sGC, haem-containing sGC, +0.01 μM DEA/NO ([3]; 1.0 μM Example 22): 4.4 ± 1.4 x-fold; Stimulation (x-fold) of recombinant sGC, haem-containing sGC, +10 μM ODQ ([3]; 1.0 μM Example 22): 8.4 ± 2.2 x-fold; Stimulation (x-fold) of recombinant sGC, haem-containing sGC, basal ([3]; 1.0 μM Example 22): 2.4 ± 1.0 x-fold; Stimulation (x-fold) of recombinant sGC, haem-containing sGC, +0.01 μM DEA/NO ([3]; 10 μM Example 22): 7.8 ± 2.5 x-fold; Stimulation (x-fold) of recombinant sGC, haem-containing sGC, +10 μM ODQ ([3]; 10 μM Example 22): 18.3 ± 5.4 x-fold; Stimulation (x-fold) of recombinant sGC, haem-containing sGC, basal ([3]; 10 μM Example 22): 4.9 ± 1.2 x-fold; Effect of combination with the NO donor DEA/NO on sGC stimulation ([3]; haem-containing sGC, combination with DEA/NO): no synergistic effect
11 | 1 | C[C@H]([C@H](C(=O)Nc1cc(C(CC(=O)O)C2CCC2)ccc1Cl)c1ccc(Cl)cc1)C(F)(F)F (single isomer, unassigned; (+)) [Example 33] | –
12 | 10 | C[C@H]([C@H](C(=O)Nc1cc(C(CC(=O)O)C2CCC2)ccc1Cl)c1ccc(Cl)cc1)C(F)(F)F (single isomer, unassigned; (+)) [Example 34] | –
13 | 300 | C[C@H]([C@H](C(=O)Nc1cc(C(C)(CC(=O)O)C2CC2)ccc1Cl)c1ccc(Cl)cc1)C(F)(F)F (some centres unmarked) [Example 7] | –
14 | 1 | CCc1ccc([C@@H](C(=O)Nc2cc(C(CC(=O)O)C(C)C)ccc2Cl)[C@@H](C)C(F)(F)F)cc1 (some centres unmarked) [Example 8] | –
15 | 1 | CC(C)C(CC(=O)O)c1ccc(Cl)c(NC(=O)[C@H](c2ccc(Cl)c(F)c2)[C@@H](C)C(F)(F)F)c1 (some centres unmarked) [Example 9] | –
16 | 0.3 | CC(C)c1ccc([C@@H](C(=O)Nc2cc(C(CC(=O)O)C(C)C)ccc2Cl)[C@@H](C)C(F)(F)F)cc1 (some centres unmarked) [Example 10] | –
17 | 3 | CC(C)C(CC(=O)O)c1ccc(Cl)c(NC(=O)[C@H](c2ccc(F)cc2)[C@@H](C)C(F)(F)F)c1 (some centres unmarked) [Example 11] | –

Row | MEC (minimum effective concentration), sGC-activating activity in the CHO reporter cell [1] [nM] | Structure (SMILES) | other results
18 | 1 | CC(C)C(CC(=O)O)c1ccc(Cl)c(NC(=O)C(c2ccc(CC(F)(F)F)cc2)C(C)C(F)(F)F)c1 (centres unmarked) [Example 12] | –
19 | 0.3 | CC(C)C(CC(=O)O)c1ccc(Cl)c(NC(=O)[C@H](c2ccc(C3CC3(F)F)cc2)[C@@H](C)C(F)(F)F)c1 (some centres unmarked) [Example 13] | –
20 | 0.3 | CC(C)C(CC(=O)O)c1ccc(Cl)c(NC(=O)[C@H](c2ccc(C(C)(C)C)cc2)[C@@H](C)C(F)(F)F)c1 (some centres unmarked) [Example 14] | –
21 | 3 | COc1cc([C@@H](C(=O)Nc2cc(C(CC(=O)O)C(C)C)ccc2Cl)[C@@H](C)C(F)(F)F)ccc1Cl (some centres unmarked) [Example 15] | –
22 | 3 | Cc1ccc([C@@H](C(=O)Nc2cc(C(CC(=O)O)C(C)C)ccc2Cl)[C@@H](C)C(F)(F)F)cc1 (some centres unmarked) [Example 16] | –
23 | 1 | Cc1cc([C@@H](C(=O)Nc2cc(C(CC(=O)O)C(C)C)ccc2Cl)[C@@H](C)C(F)(F)F)ccc1Cl (some centres unmarked) [Example 17] | –
24 | 300 | CC(C)C(CC(=O)O)c1ccc(Cl)c(NC(=O)C(c2ccc(Cl)cc2)C2CCC(F)(F)C2)c1 (centres unmarked) [Example 18] | –
25 | 30 | CC(C)C(CC(=O)O)c1ccc(Cl)c(NC(=O)C(c2ccc(Cl)cc2)C2CCC(F)(F)C2)c1 (centres unmarked) [Example 19] | –
26 | 1000 | CC(C)C(CC(=O)O)c1ccc(Cl)c(NC(=O)C(c2ccc(Cl)cc2)C2CCC(F)(F)C2)c1 (centres unmarked) [Example 20] | –
27 | 10 | CC(C)C(CC(=O)O)c1ccc(Cl)c(NC(=O)C(c2ccc(Cl)cc2)C2CCC(F)(F)C2)c1 (centres unmarked) [Example 21] | –
28 | 3 | C[C@H]([C@H](C(=O)Nc1cc(C(CC(=O)O)C2CC2)ccc1Cl)c1ccc(Cl)cc1)C(F)(F)F (some centres unmarked) [Example 23] | –
29 | 10 | COC(C)(C)C(CC(=O)O)c1ccc(Cl)c(NC(=O)[C@H](c2ccc(Cl)cc2)[C@@H](C)C(F)(F)F)c1 (some centres unmarked) [Example 25] | –
30 | 3 | C[C@H]([C@H](C(=O)Nc1cc(C(CC(=O)O)C2(F)CC2)ccc1Cl)c1ccc(Cl)cc1)C(F)(F)F (some centres unmarked) [Example 27] | –
31 | 30 | C[C@H]([C@H](C(=O)Nc1cc(C(CC(=O)O)C2CC(F)(F)C2)ccc1Cl)c1ccc(Cl)cc1)C(F)(F)F (some centres unmarked) [Example 28] | –
32 | 3 | C[C@H](C(C(=O)Nc1cc(C(CC(=O)O)C2CC2(F)F)ccc1Cl)c1ccc(Cl)cc1)C(F)(F)F (stereo partly drawn) [Example 31, 3-(4-Chloro-3-{[(3R)-2-(4-chlorophenyl)-4,4,4-trifluoro-3-methylbutanoyl]amino}phenyl)-3-(2,2-difluorocyclopropyl)propanoic acid] | –
33 | 3 | C[C@H](C(C(=O)Nc1cc(C(CC(=O)O)C2CC2(F)F)ccc1Cl)c1ccc(Cl)cc1)C(F)(F)F (stereo partly drawn) [Example 32, 3-(4-Chloro-3-{[(3R)-2-(4-chlorophenyl)-4,4,4-trifluoro-3-methylbutanoyl]amino}phenyl)-3-(2,2-difluorocyclopropyl)propanoic acid] | –
